This assay deals with T1, LkCPR; NADPH-dependent cytochrome P450 reductase from Liza klunzingeri liver.
T1 construct: gene POR; native, purified from liver microsomes (detergent-solubilised; DEAE-Sepharose twice, 2',5'-ADP Sepharose 4B); about 75 kDa, monomer
In words: cytochrome c reduction at […] nm, Michaelis-Menten fit. The format is biochemical, Planiliza klunzingeri. To be noted: co-substrate cytochrome c at saturation (50 µM); potassium phosphate pH 7.5; room temperature; apparent Km.

On to `NC(=O)C1=CN([C@@H]2O[C@H](COP(=O)(O)OP(=O)(O)OC[C@H]3O[C@@H](n4cnc5c(N)ncnc54)[C@H](OP(=O)(O)O)[C@@H]3O)[C@@H](O)[C@H]2O)C=CC1` [NADPH], for which the Michaelis-Menten constant (Km) was 7.26 ± 0.2 µM.

The Km is the concentration of substrate that gives half-maximal velocity.

The record behind these values is publication PMC9964268, “A Novel, Highly Potent NADPH-Dependent Cytochrome P450 Reductase from Waste Liza klunzingeri Liver” (Marine Drugs, 2023).
